Test system: plants
Assay: Test D pre-emergence, other plants of Tables D1 and D3
Type: in vivo
Conditions: for damage to plant (100=total damage to plant; 0=no damage to plant), ABUTH / damage to plant (100=total damage to plant; 0=no damage to plant), AMARE / damage to plant (100=total damage to plant; 0=no damage to plant), BIDPI / damage to plant (100=total damage to plant; 0=no damage to plant), BRAPL / damage to plant (100=total damage to plant; 0=no damage to plant), CYPES / damage to plant (100=total damage to plant; 0=no damage to plant), DIGSA / damage to plant (100=total damage to plant; 0=no damage to plant), ECHCG / damage to plant (100=total damage to plant; 0=no damage to plant), ELEIN / damage to plant (100=total damage to plant; 0=no damage to plant), EPHHL / damage to plant (100=total damage to plant; 0=no damage to plant), GLXMA / damage to plant (100=total damage to plant; 0=no damage to plant), IPOHE / damage to plant (100=total damage to plant; 0=no damage to plant), ORYSA / damage to plant (100=total damage to plant; 0=no damage to plant), PANMI / damage to plant (100=total damage to plant; 0=no damage to plant), SETFA / damage to plant (100=total damage to plant; 0=no damage to plant), SORVU: preemergent, 20 DAA; for damage to plant, ALOMY / damage to plant, AVEFA / damage to plant, BEAVA / damage to plant, BROTE / damage to plant, BRSNN / damage to plant, CHEAL / damage to plant, GALAP / damage to plant, HORVW / damage to plant, KCHSC / damage to plant, LOLPE / damage to plant, POAAN / damage to plant, POLCO / damage to plant, SINAR / damage to plant, STEME / damage to plant, VERPE: pre-emergence, 100=total damage, 0=no damage
Method in brief: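 Damage was rated visually from 0 (none) to 100 (total), at 20 DAA for pre-emergence and 15 d for post-emergence. Plants grew from safener-treated seed in a glasshouse at 24/18° C. or 20/16° C. day/night, 65% humidity, watered twice daily.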

## COc1c(F)cccc1NC(=O)C1C(=O)N(C)CC1c1cc(C(F)(F)F)n(C)n1 (racemic) [Compound 18]
Rate 15
  damage to plant (100=total damage to plant; 0=no damage to plant), ABUTH: 0
  damage to plant (100=total damage to plant; 0=no damage to plant), AMARE: 0
  damage to plant (100=total damage to plant; 0=no damage to plant), BIDPI: 0
  damage to plant (100=total damage to plant; 0=no damage to plant), BRAPL: 10
  damage to plant (100=total damage to plant; 0=no damage to plant), CYPES: 0
  damage to plant (100=total damage to plant; 0=no damage to plant), DIGSA: 0
  damage to plant (100=total damage to plant; 0=no damage to plant), ECHCG: 0
  damage to plant (100=total damage to plant; 0=no damage to plant), ELEIN: 0
  damage to plant (100=total damage to plant; 0=no damage to plant), EPHHL: 0
  damage to plant (100=total damage to plant; 0=no damage to plant), GLXMA: 0
  damage to plant (100=total damage to plant; 0=no damage to plant), IPOHE: 0
  damage to plant (100=total damage to plant; 0=no damage to plant), ORYSA: 0
  damage to plant (100=total damage to plant; 0=no damage to plant), PANMI: 0
  damage to plant (100=total damage to plant; 0=no damage to plant), SETFA: 0
  damage to plant (100=total damage to plant; 0=no damage to plant), SORVU: 0
Rate 30
  damage to plant (100=total damage to plant; 0=no damage to plant), ABUTH: 0
  damage to plant (100=total damage to plant; 0=no damage to plant), AMARE: 0
  damage to plant (100=total damage to plant; 0=no damage to plant), BIDPI: 0
  damage to plant (100=total damage to plant; 0=no damage to plant), BRAPL: 60
  damage to plant (100=total damage to plant; 0=no damage to plant), CYPES: 0
  damage to plant (100=total damage to plant; 0=no damage to plant), DIGSA: 80
  damage to plant (100=total damage to plant; 0=no damage to plant), ECHCG: 30
  damage to plant (100=total damage to plant; 0=no damage to plant), ELEIN: 0
  damage to plant (100=total damage to plant; 0=no damage to plant), EPHHL: 0
  damage to plant (100=total damage to plant; 0=no damage to plant), GLXMA: 0
  damage to plant (100=total damage to plant; 0=no damage to plant), IPOHE: 0
  damage to plant (100=total damage to plant; 0=no damage to plant), ORYSA: 0
  damage to plant (100=total damage to plant; 0=no damage to plant), PANMI: 0
  damage to plant (100=total damage to plant; 0=no damage to plant), SETFA: 0
  damage to plant (100=total damage to plant; 0=no damage to plant), SORVU: 0
Rate 60
  damage to plant (100=total damage to plant; 0=no damage to plant), ABUTH: 0
  damage to plant (100=total damage to plant; 0=no damage to plant), AMARE: 0
  damage to plant (100=total damage to plant; 0=no damage to plant), BIDPI: 0
  damage to plant (100=total damage to plant; 0=no damage to plant), BRAPL: 70
  damage to plant (100=total damage to plant; 0=no damage to plant), CYPES: 0
  damage to plant (100=total damage to plant; 0=no damage to plant), DIGSA: 90
  damage to plant (100=total damage to plant; 0=no damage to plant), ECHCG: 70
  damage to plant (100=total damage to plant; 0=no damage to plant), ELEIN: 0
  damage to plant (100=total damage to plant; 0=no damage to plant), EPHHL: 0
  damage to plant (100=total damage to plant; 0=no damage to plant), GLXMA: 0
  damage to plant (100=total damage to plant; 0=no damage to plant), IPOHE: 0
  damage to plant (100=total damage to plant; 0=no damage to plant), ORYSA: 0
  damage to plant (100=total damage to plant; 0=no damage to plant), PANMI: 0
  damage to plant (100=total damage to plant; 0=no damage to plant), SETFA: 80
  damage to plant (100=total damage to plant; 0=no damage to plant), SORVU: 0
Rate 130
  damage to plant (100=total damage to plant; 0=no damage to plant), ABUTH: 0
  damage to plant (100=total damage to plant; 0=no damage to plant), AMARE: 0
  damage to plant (100=total damage to plant; 0=no damage to plant), BIDPI: 0
  damage to plant (100=total damage to plant; 0=no damage to plant), BRAPL: 80
  damage to plant (100=total damage to plant; 0=no damage to plant), CYPES: 0
  damage to plant (100=total damage to plant; 0=no damage to plant), DIGSA: 90
  damage to plant (100=total damage to plant; 0=no damage to plant), ECHCG: 90
  damage to plant (100=total damage to plant; 0=no damage to plant), ELEIN: 0
  damage to plant (100=total damage to plant; 0=no damage to plant), EPHHL: 0
  damage to plant (100=total damage to plant; 0=no damage to plant), GLXMA: 0
  damage to plant (100=total damage to plant; 0=no damage to plant), IPOHE: 0
  damage to plant (100=total damage to plant; 0=no damage to plant), ORYSA: 0
  damage to plant (100=total damage to plant; 0=no damage to plant), PANMI: 0
  damage to plant (100=total damage to plant; 0=no damage to plant), SETFA: 90
  damage to plant (100=total damage to plant; 0=no damage to plant), SORVU: 0
Rate 250
  damage to plant (100=total damage to plant; 0=no damage to plant), ABUTH: 10
  damage to plant (100=total damage to plant; 0=no damage to plant), AMARE: 0
  damage to plant (100=total damage to plant; 0=no damage to plant), BIDPI: 0
  damage to plant (100=total damage to plant; 0=no damage to plant), BRAPL: 80
  damage to plant (100=total damage to plant; 0=no damage to plant), CYPES: 0
  damage to plant (100=total damage to plant; 0=no damage to plant), DIGSA: 90
  damage to plant (100=total damage to plant; 0=no damage to plant), ECHCG: 90
  damage to plant (100=total damage to plant; 0=no damage to plant), ELEIN: 0
  damage to plant (100=total damage to plant; 0=no damage to plant), EPHHL: 10
  damage to plant (100=total damage to plant; 0=no damage to plant), GLXMA: 0
  damage to plant (100=total damage to plant; 0=no damage to plant), IPOHE: 0
  damage to plant (100=total damage to plant; 0=no damage to plant), ORYSA: 0
  damage to plant (100=total damage to plant; 0=no damage to plant), PANMI: 0
  damage to plant (100=total damage to plant; 0=no damage to plant), SETFA: 90
  damage to plant (100=total damage to plant; 0=no damage to plant), SORVU: 0
Rate 500
  damage to plant (100=total damage to plant; 0=no damage to plant), ABUTH: 30
  damage to plant (100=total damage to plant; 0=no damage to plant), AMARE: 0
  damage to plant (100=total damage to plant; 0=no damage to plant), BIDPI: 0
  damage to plant (100=total damage to plant; 0=no damage to plant), BRAPL: 90
  damage to plant (100=total damage to plant; 0=no damage to plant), CYPES: 0
  damage to plant (100=total damage to plant; 0=no damage to plant), DIGSA: 100
  damage to plant (100=total damage to plant; 0=no damage to plant), ECHCG: 90
  damage to plant (100=total damage to plant; 0=no damage to plant), ELEIN: 0
  damage to plant (100=total damage to plant; 0=no damage to plant), EPHHL: 20
  damage to plant (100=total damage to plant; 0=no damage to plant), GLXMA: 0
  damage to plant (100=total damage to plant; 0=no damage to plant), IPOHE: 0
  damage to plant (100=total damage to plant; 0=no damage to plant), ORYSA: 0
  damage to plant (100=total damage to plant; 0=no damage to plant), PANMI: 0
  damage to plant (100=total damage to plant; 0=no damage to plant), SETFA: 90
  damage to plant (100=total damage to plant; 0=no damage to plant), SORVU: 10
Rate 15, 20 DAA
  damage to plant, ALOMY: 0
  damage to plant, AVEFA: 0
  damage to plant, BEAVA: 0
  damage to plant, BROTE: 0
  damage to plant, BRSNN: 0
  damage to plant, CHEAL: 0
  damage to plant, GALAP: 0
  damage to plant, HORVW: 0
  damage to plant, KCHSC: 0
  damage to plant, LOLPE: 0
  damage to plant, POAAN: 0
  damage to plant, POLCO: 0
  damage to plant, SINAR: 0
  damage to plant, STEME: 0
  damage to plant, VERPE: 0
Rate 30, 20 DAA
  damage to plant, ALOMY: 0
  damage to plant, AVEFA: 0
  damage to plant, BEAVA: 0
  damage to plant, BROTE: 0
  damage to plant, BRSNN: 0
  damage to plant, CHEAL: 0
  damage to plant, GALAP: 0
  damage to plant, HORVW: 0
  damage to plant, KCHSC: 0
  damage to plant, LOLPE: 0
  damage to plant, POAAN: 0
  damage to plant, POLCO: 0
  damage to plant, SINAR: 0
  damage to plant, STEME: 0
  damage to plant, VERPE: 0
Rate 60, 20 DAA
  damage to plant, ALOMY: 0
  damage to plant, AVEFA: 0
  damage to plant, BEAVA: 0
  damage to plant, BROTE: 0
  damage to plant, BRSNN: 0
  damage to plant, CHEAL: 0
  damage to plant, GALAP: 0
  damage to plant, HORVW: 0
  damage to plant, KCHSC: 0
  damage to plant, LOLPE: 10
  damage to plant, POAAN: 40
  damage to plant, POLCO: 0
  damage to plant, SINAR: 0
  damage to plant, STEME: 0
  damage to plant, VERPE: 10
Rate 130, 20 DAA
  damage to plant, ALOMY: 0
  damage to plant, AVEFA: 0
  damage to plant, BEAVA: 0
  damage to plant, BROTE: 10
  damage to plant, BRSNN: 0
  damage to plant, CHEAL: 20
  damage to plant, GALAP: 10
  damage to plant, HORVW: 0
  damage to plant, KCHSC: 0
  damage to plant, LOLPE: 20
  damage to plant, POAAN: 60
  damage to plant, POLCO: 0
  damage to plant, SINAR: 0
  damage to plant, STEME: 10
  damage to plant, VERPE: 20
Rate 250, 20 DAA
  damage to plant, ALOMY: 30
  damage to plant, AVEFA: 30
  damage to plant, BEAVA: 0
  damage to plant, BROTE: 30
  damage to plant, BRSNN: 10
  damage to plant, CHEAL: 20
  damage to plant, GALAP: 30
  damage to plant, HORVW: 0
  damage to plant, KCHSC: 0
  damage to plant, LOLPE: 50
  damage to plant, POAAN: 70
  damage to plant, POLCO: 0
  damage to plant, SINAR: 0
  damage to plant, STEME: 20
  damage to plant, VERPE: 60
Rate 500, 20 DAA
  damage to plant, ALOMY: 60
  damage to plant, AVEFA: 40
  damage to plant, BEAVA: 0
  damage to plant, BROTE: 40
  damage to plant, BRSNN: 20
  damage to plant, CHEAL: 30
  damage to plant, GALAP: 20
  damage to plant, HORVW: 40
  damage to plant, KCHSC: 0
  damage to plant, LOLPE: 70
  damage to plant, POAAN: 90
  damage to plant, POLCO: 0
  damage to plant, SINAR: 10
  damage to plant, STEME: 10
  damage to plant, VERPE: 50

From patent publication US20220281848A1, “PYRAZOLE-SUBSTITUTED PYRROLIDINONES AS HERBICIDES” (FMC Corporation, priority 2019, published 2022)
